Data reported in paper PMC5469811, “Identification of GXXXXG motif in Chrysophsin-1 and its implication in the design of analogs with cell-selective antimicrobial and anti-endotoxin activities” (Scientific Reports, 2017).
Converted amounts (≈) assume the structure as drawn. Residues, ends and D or L forms follow the SMILES beside them.

How the values were obtained:
[1] = tested on: Sporothrix schenckii (Patient isolates); assay: microbe, parasite or virus in culture; format: cell-based; settings: Sporothrix schenckii (patient isolates); NCCLS micro broth dilution, 35 °C; read-out: Minimum inhibitory concentration (MIC)
S. aureus (ATCC 25923) = format: cell-based, Staphylococcus aureus; settings: S. aureus (ATCC 25923)
Experimental: (§1) E. coli ATCC25922 was grown to 10^6 CFU/ml in fresh MH broth with various divalent and monovalent salts at their physiological concentrations. Serial dilutions of chrysophsin-1 and its variants prepared with the same MH broth were added to the E. coli ATCC 25922 suspensions. The bacteria were incubated at 37 °C in a shaking incubator for 18 h and the MIC values of individual peptides against E. coli ATCC 25922 were determined. Thermal tolerance of Chrysophsin-1 and its variants was checked by incubating the peptides at 4 °C, 60 °C and 90 °C for 1 h prior to MIC determination. The antibacterial activity in presence of serum was carried out by adding a final concentration of 10% fetal bovine serum in the assay diluents containing 0.4% BSA, 0.02% glacial acetic acid. The subsequent steps in both the experiments were consistent with the MIC determination method.

[2] = tested on: Candida albicans (ATCC 10231); assay: microbe, parasite or virus in culture; format: cell-based; settings: Candida albicans (ATCC 10231); NCCLS micro broth dilution, 35 °C, 48 h, absorbance 492 nm; read-out: Minimum inhibitory concentration (MIC)
Experimental: (§2) The anti- fungal activity of peptides was performed according to the standard micro broth dilution technique as per NCCLS guidelines. These plates were incubated in a moist chamber at 35 °C, and an absorbance at 492 nm was recorded on a VersaMax microplate reader after 48 h for C. albicans ATCC 10231 and C. parapsilosis ATCC 22019 and 72 h for C. neoformans.

Cryptococcus neoformans = assay: microbe, parasite or virus in culture; format: cell-based; settings: Cryptococcus neoformans; NCCLS micro broth dilution, 35 °C, 72 h, absorbance 492 nm; read-out: Minimum inhibitory concentration (MIC)
Experimental: as §2

[3] = tested on: Candida parapsilosis (ATCC 22019); assay: microbe, parasite or virus in culture; format: cell-based; settings: Candida parapsilosis (ATCC 22019); NCCLS micro broth dilution, 35 °C, 48 h, absorbance 492 nm; read-out: Minimum inhibitory concentration (MIC)
Experimental: as §2

E. coli ATCC 25922 [4] = assay: Synergy with conventional antibiotics, checkerboard titration; format: cell-based, Escherichia coli
Experimental: The checkerboard titration method was followed to check the synergy of peptides with other antibiotics. First, 2-fold serial dilutions of the antibiotics and antimicrobial peptides were prepared. Subsequently, 50 μl each of different concentrations of antibiotics and of antimicrobial peptides was mixed and added into 100 μl of log phase bacteria culture in a 96-well plate. The plates were then incubated at 37 °C for 24 h. The fractional inhibitory concentration (FIC) index (FICI) was calculated as follows[39]: FICI=(MICofdrugAincombination)/(MICofdrugAalone)+(MICofdrugBincombination)/(MICofdrugB): FICI < 0.5 is considered to indicate synergy; 0.5 < FICI < 1.0 is considered additive; 1.0 < FICI < 4.0 is considered indifferent; and FICI > 4.0 is considered antagonism.

[5] = tested on: Staphylococcus aureus (BAA-44)MDR; assay: microbe, parasite or virus in culture; format: cell-based; settings: Staphylococcus aureus (BAA-44) MDR; averages of three repeats; read-out: Minimum inhibitory concentration (MIC)
Experimental: (§3) Antibacterial assay against various Gram-positive and Gram-negative strains of bacteria was performed by the serial two-fold dilution method according to the previously reported procedure, [36]. The antibacterial assays were repeated thrice and the averages of these MIC values were reported.

[6] = tested on: Staphylococcus aureus (ATCC 29213); assay: microbe, parasite or virus in culture; format: cell-based; settings: Staphylococcus aureus (ATCC 29213); averages of three repeats; read-out: Minimum inhibitory concentration (MIC)
Experimental: as §3

[7] = tested on: Escherichia coli (ATCC 9637); assay: microbe, parasite or virus in culture; format: cell-based; settings: Escherichia coli (ATCC 9637); averages of three repeats; read-out: Minimum inhibitory concentration (MIC)
Experimental: as §3

[8] = tested on: Escherichia coli (ATCC 25922); assay: microbe, parasite or virus in culture; format: cell-based; settings: Escherichia coli (ATCC 25922); averages of three repeats; read-out: Minimum inhibitory concentration (MIC)
Experimental: as §3

[9] = tested on: Bacillus subtilis (ATCC 6633); assay: microbe, parasite or virus in culture; format: cell-based; settings: Bacillus subtilis (ATCC 6633); averages of three repeats; read-out: Minimum inhibitory concentration (MIC)
Experimental: as §3

[10] = tested on: Pseudomonas aeruginosa (ATCC BAA-427); assay: microbe, parasite or virus in culture; format: cell-based; settings: Pseudomonas aeruginosa (ATCC BAA-427); averages of three repeats; read-out: Minimum inhibitory concentration (MIC)
Experimental: as §3

[11] = tested on: Staphylococcus aureus (ATCC 25923); assay: microbe, parasite or virus in culture; format: cell-based; settings: Staphylococcus aureus (ATCC 25923); averages of three repeats; read-out: Minimum inhibitory concentration (MIC)
Experimental: as §3

[12] = tested on: Staphylococcus aureus (ATCC 33592) Methicillin resistant Genatmicin resistant; assay: microbe, parasite or virus in culture; format: cell-based; settings: Staphylococcus aureus (ATCC 33592), methicillin and gentamicin resistant; averages of three repeats; read-out: Minimum inhibitory concentration (MIC)
Experimental: as §3

[13] = tested on: Staphylococcus aureus (ATCC 700699 MRSA); assay: microbe, parasite or virus in culture; format: cell-based; settings: Staphylococcus aureus (ATCC 700699 MRSA); averages of three repeats; read-out: Minimum inhibitory concentration (MIC)
Experimental: as §3

[14] = tested on: Staphylococcus aureus (ATCC 700698 MRSA); assay: microbe, parasite or virus in culture; format: cell-based; settings: Staphylococcus aureus (ATCC 700698 MRSA); averages of three repeats; read-out: Minimum inhibitory concentration (MIC)
Experimental: as §3

[15] = tested on: Klebsiella pneumoniae (ATCC 27736); assay: microbe, parasite or virus in culture; format: cell-based; settings: Klebsiella pneumoniae (ATCC 27736); averages of three repeats; read-out: Minimum inhibitory concentration (MIC)
Experimental: as §3

E. coli (ATCC 25922) = format: cell-based, Escherichia coli; settings: E. coli (ATCC 25922)
Experimental: as §1

E. coli ATCC 25922 [16] = format: cell-based, Escherichia coli; settings: E. coli ATCC 25922
Experimental: as §1

[17] = peptide incubated 1 h at 4 °C prior to MIC determination
[18] = peptide incubated 1 h at 60 °C prior to MIC determination
[19] = peptide incubated 1 h at 90 °C prior to MIC determination

Structure (SMILES): CC[C@H](C)[C@H](NC(=O)[C@H](C)NC(=O)[C@H](CCCCN)NC(=O)CNC(=O)[C@H](C)NC(=O)[C@H](Cc1c[nH]cn1)NC(=O)[C@@H](NC(=O)[C@H](C)NC(=O)CNC(=O)[C@H](CCCCN)NC(=O)[C@@H](NC(=O)[C@H](CC(C)C)NC(=O)[C@H](Cc1c[nH]c2ccccc12)NC(=O)CNC(=O)[C@H](Cc1ccccc1)NC(=O)[C@@H](N)Cc1ccccc1)[C@@H](C)CC)[C@@H](C)CC)C(=O)N[C@@H](Cc1c[nH]cn1)C(=O)NCC(=O)N[C@@H](CC(C)C)C(=O)N[C@H](C(=O)N[C@@H](Cc1c[nH]cn1)C(=O)N[C@@H](CCCNC(=N)N)C(=O)N[C@@H](CCCNC(=N)N)C(=O)N[C@@H](CCCNC(=N)N)C(=O)N[C@@H](Cc1c[nH]cn1)C(N)=O)[C@@H](C)CC [Chr-1, reference compound] (H-FFGWLIKGAIHAGKAIHGLIHRRRH-NH2; N-terminus assumed)
- MIC [1]: 13.6 µM (≈ 39.3 µg/mL)
- Antibacterial activity (MIC) after incubating peptide at 4 °C (S. aureus (ATCC 25923); [17]): 3 µM
- Antibacterial activity (MIC) after incubating peptide at 60 °C (S. aureus (ATCC 25923); [18]): 12.6 µM
- Antibacterial activity (MIC) after incubating peptide at 90 °C (S. aureus (ATCC 25923); [19]): 16.6 µM
- MIC [2]: 6.8 µM (≈ 19.7 µg/mL)
- MIC (Cryptococcus neoformans): 3 µM (≈ 8.67 µg/mL)
- MIC [3]: 3 µM (≈ 8.67 µg/mL)
- interaction of peptide with chloramphenicol (by FICI) (E. coli ATCC 25922 [4]): synergy (FICI < 0.5 is considered to indicate synergy)
- MIC [5]: 1.6 µM (≈ 4.63 µg/mL)
- MIC [6]: 1.6 µM (≈ 4.63 µg/mL)
- MIC [7]: 3.4 µM (≈ 9.83 µg/mL)
- MIC [8]: 3 µM (≈ 8.67 µg/mL)
- MIC [9]: 6 µM (≈ 17.3 µg/mL)
- MIC [10]: 6.8 µM (≈ 19.7 µg/mL)
- MIC [11]: 3 µM (≈ 8.67 µg/mL)
- MIC [12]: 1.6 µM (≈ 4.63 µg/mL)
- MIC [13]: 1.6 µM (≈ 4.63 µg/mL)
- MIC [14]: 3 µM (≈ 8.67 µg/mL)
- MIC [15]: 3 µM (≈ 8.67 µg/mL)
- Antibacterial activity (MIC) after incubating peptide at 4 °C (E. coli (ATCC 25922); [17]): 3 µM
- Antibacterial activity (MIC) after incubating peptide at 60 °C (E. coli (ATCC 25922); [18]): 8.3 µM
- Antibacterial activity (MIC) after incubating peptide at 90 °C (E. coli (ATCC 25922); [19]): 8.6 µM
- Antibacterial activity (MIC) in the presence of 10% FBS (E. coli ATCC 25922 [16]; 10% fetal bovine serum in assay diluent with 0.4% BSA, 0.02% glacial acetic acid): 17.2 µM
- Antibacterial activity (MIC) in the presence of FeCl3 (E. coli ATCC 25922 [16]; FeCl3 4 μM in MH broth, 37 °C, 18 h): 4.3 µM
- Antibacterial activity (MIC) in the presence of KCl (E. coli ATCC 25922 [16]; KCl 4.5 mM in MH broth, 37 °C, 18 h): 4.3 µM
- Antibacterial activity (MIC) in the presence of MgCl2 (E. coli ATCC 25922 [16]; MgCl2 1 mM in MH broth, 37 °C, 18 h): 8.6 µM
- Antibacterial activity (MIC) in the presence of NH4Cl (E. coli ATCC 25922 [16]; NH4Cl 6 μM in MH broth, 37 °C, 18 h): 4.3 µM
- Antibacterial activity (MIC) in the presence of NaCl (E. coli ATCC 25922 [16]; NaCl 150 mM in MH broth, 37 °C, 18 h): 8.3 µM
- Antibacterial activity (MIC) in the presence of ZnCl2 (E. coli ATCC 25922 [16]; ZnCl2 8 μM in MH broth, 37 °C, 18 h): 4.3 µM
